Measurements: EP0584797A2, “Novel cephalosporin compounds and processes for the preparation thereof” (LUCKY LTD., priority 1992, dated 1994)
≈ marks a conversion by molar mass, not a printed value.

Tests used:
Experiment in all cases: minimal inhibitory concentration, two-fold agar dilution
Type in all cases: cell-based
[1] = system: Serratia marcescens ATCC 27117; conditions: ATCC27117, Muller-Hinton agar, 37°C, 20 hours, read-out: MIC values against the standard strains
Method in brief: (§1)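 Compounds were serially diluted two-fold into Mueller-Hinton agar, and each plate was spot-inoculated with the test strain at 10⁷ CFU per ml. Plates were incubated at 37°C for 20 hours before MIC values were read.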

[2] = system: Bacillus cereus ATCC 11778; conditions: ATCC11778, Muller-Hinton agar, 37°C, 20 hours, read-out: MIC values against the standard strains
Method in brief: as §1

[3] = system: Escherichia coli ATCC 10536; conditions: ATCC10536, Muller-Hinton agar, 37°C, 20 hours, read-out: MIC values against the standard strains
Method in brief: as §1

[4] = system: Micrococcus luteus ATCC 9341; conditions: ATCC9341, Muller-Hinton agar, 37°C, 20 hours, read-out: MIC values against the standard strains
Method in brief: as §1

[5] = system: Enterobacter cloacae ATCC 27508; conditions: ATCC27508, Muller-Hinton agar, 37°C, 20 hours, read-out: MIC values against the standard strains
Method in brief: as §1

[6] = system: Escherichia coli ATCC 25922; conditions: ATCC25922, Muller-Hinton agar, 37°C, 20 hours, read-out: MIC values against the standard strains
Method in brief: as §1

[7] = system: Providencia rettgeri ATCC 9250; conditions: ATCC9250, Muller-Hinton agar, 37°C, 20 hours, read-out: MIC values against the standard strains
Method in brief: as §1

[8] = system: Morganella morganii ATCC 8076h; conditions: ATCC8076H, Muller-Hinton agar, 37°C, 20 hours, read-out: MIC values against the standard strains
Method in brief: as §1

[9] = system: Klebsiella pneumoniae ATCC 10031; conditions: ATCC10031, Muller-Hinton agar, 37°C, 20 hours, read-out: MIC values against the standard strains
Method in brief: as §1

[10] = system: Shigella flexneri ATCC 11836; conditions: ATCC11836, Muller-Hinton agar, 37°C, 20 hours, read-out: MIC values against the standard strains
Method in brief: as §1

[11] = system: Staphylococcus aureus ATCC 10537; conditions: ATCC10537, Muller-Hinton agar, 37°C, 20 hours, read-out: MIC values against the standard strains
Method in brief: as §1

[12] = system: Pseudomonas aeruginosa ATCC 25619; conditions: ATCC25619, Muller-Hinton agar, 37°C, 20 hours, read-out: MIC values against the standard strains
Method in brief: as §1

[13] = system: Salmonella typhimurium ATCC 14028; conditions: Salmonella enterica; Muller-Hinton agar; 37°C; 20 hours; read-out: MIC values against the standard strains
Method in brief: as §1

[14] = system: Enterobacter aerogenes ATCC 29751; conditions: Klebsiella aerogenes, ATCC29751; Muller-Hinton agar; 37°C; 20 hours; read-out: MIC values against the standard strains
Method in brief: as §1

[15] = system: Streptococcus faecalis ATCC 29212; conditions: Enterococcus faecalis, ATCC29212; Muller-Hinton agar; 37°C; 20 hours; read-out: MIC values against the standard strains
Method in brief: as §1

[16] = system: Staphylococcus epidermidis ATCC 12228; conditions: ATCC12228, Muller-Hinton agar, 37°C, 20 hours, read-out: MIC values against the standard strains
Method in brief: as §1

[17] = system: Citrobacter freundii ATCC 8090; conditions: ATCC8090, Muller-Hinton agar, 37°C, 20 hours, read-out: MIC values against the standard strains
Method in brief: as §1

[18] = system: Proteus vulgaris ATCC 6059; conditions: ATCC6059, Muller-Hinton agar, 37°C, 20 hours, read-out: MIC values against the standard strains
Method in brief: as §1

[19] = system: Pseudomonas aeruginosa ATCC 27853; conditions: ATCC27853, Muller-Hinton agar, 37°C, 20 hours, read-out: MIC values against the standard strains
Method in brief: as §1

[20] = system: Proteus mirabilis ATCC 25933; conditions: ATCC25933, Muller-Hinton agar, 37°C, 20 hours, read-out: MIC values against the standard strains
Method in brief: as §1

[21] = system: Acinetobacter calcoaceticus ATCC 15437; conditions: ATCC15437, Muller-Hinton agar, 37°C, 20 hours, read-out: MIC values against the standard strains
Method in brief: as §1

[22] = system: Pseudomonas aeruginosa ATCC 10145; conditions: ATCC10145, Muller-Hinton agar, 37°C, 20 hours, read-out: MIC values against the standard strains
Method in brief: as §1

[23] = system: Bacillus megaterium ATCC 9885; conditions: Priestia megaterium, ATCC9885; Muller-Hinton agar; 37°C; 20 hours; read-out: MIC values against the standard strains
Method in brief: as §1

[24] = system: Staphylococcus aureus ATCC 6538p; conditions: ATCC6538P, Muller-Hinton agar, 37°C, 20 hours, read-out: MIC values against the standard strains
Method in brief: as §1

[25] = system: Shigella sonnei ATCC 11060; conditions: ATCC11060, Muller-Hinton agar, 37°C, 20 hours, read-out: MIC values against the standard strains
Method in brief: as §1

## CO/N=C(\C(=O)N[C@@H]1C(=O)N2C(C(=O)[O-])=C(CSc3nc(N)c(N)c(N)[n+]3C)CS[C@H]12)c1csc(N)n1 [Example 7, 7-[(Z)-2-(2-aminothiazol-4-yl)-2-(methoxyimino)acetamido]-3-(4,5,6-triamino-1-methylpyrimidinium-2-yl)thiomethyl-3-cephem-4-carboxylate]
[1]
  MIC: 0.13 µg/mL (≈ 0.229 µM)
[2]
  MIC: 16 µg/mL (≈ 28.2 µM)
[3]
  MIC: 0.063 µg/mL (≈ 0.111 µM)
[4]
  MIC: 0.063 µg/mL (≈ 0.111 µM)
[5]
  MIC: 0.063 µg/mL (≈ 0.111 µM)
[6]
  MIC: 0.063 µg/mL (≈ 0.111 µM)
[7]
  MIC: ≤ 0.008 µg/mL
[8]
  MIC: ≤ 0.008 µg/mL
[9]
  MIC: 0.016 µg/mL (≈ 0.0282 µM)
[10]
  MIC: 0.031 µg/mL (≈ 0.0547 µM)
[11]
  MIC: 0.13 µg/mL (≈ 0.229 µM)
[12]
  MIC: 4 µg/mL (≈ 7.06 µM)
[13]
  MIC: 0.13 µg/mL (≈ 0.229 µM)
[14]
  MIC: ≤ 0.008 µg/mL
[15]
  MIC: 128 µg/mL (≈ 226 µM)
[16]
  MIC: 0.13 µg/mL (≈ 0.229 µM)
[17]
  MIC: 0.063 µg/mL (≈ 0.111 µM)
[18]
  MIC: 0.13 µg/mL (≈ 0.229 µM)
[19]
  MIC: 32 µg/mL (≈ 56.5 µM)
[20]
  MIC: 0.13 µg/mL (≈ 0.229 µM)
[21]
  MIC: 4 µg/mL (≈ 7.06 µM)
[22]
  MIC: 32 µg/mL (≈ 56.5 µM)
[23]
  MIC: 0.13 µg/mL (≈ 0.229 µM)
[24]
  MIC: 0.13 µg/mL (≈ 0.229 µM)
[25]
  MIC: 0.13 µg/mL (≈ 0.229 µM)

## CO/N=C(\C(=O)N[C@@H]1C(=O)N2C(C(=O)[O-])=C(CSc3nc(N)cc[n+]3C)CS[C@H]12)c1csc(N)n1 [Example 8, 7-[(Z)-2-(2-aminothiazol-4-yl)-2-(methoxyimino)acetamido]-3-(4-amino-1-methylpyrimidinium-2-yl)thiomethyl-3-cephem-4-carboxylate]
[1]
  MIC: 0.25 µg/mL (≈ 0.466 µM)
[2]
  MIC: 64 µg/mL (≈ 119 µM)
[3]
  MIC: 0.063 µg/mL (≈ 0.117 µM)
[4]
  MIC: 0.13 µg/mL (≈ 0.242 µM)
[5]
  MIC: ≤ 0.008 µg/mL
[6]
  MIC: 0.063 µg/mL (≈ 0.117 µM)
[7]
  MIC: ≤ 0.008 µg/mL
[8]
  MIC: ≤ 0.008 µg/mL
[9]
  MIC: 0.016 µg/mL (≈ 0.0298 µM)
[10]
  MIC: 0.063 µg/mL (≈ 0.117 µM)
[11]
  MIC: 0.25 µg/mL (≈ 0.466 µM)
[12]
  MIC: 8 µg/mL (≈ 14.9 µM)
[13]
  MIC: 0.25 µg/mL (≈ 0.466 µM)
[14]
  MIC: ≤ 0.008 µg/mL
[15]
  MIC: 64 µg/mL (≈ 119 µM)
[16]
  MIC: 0.13 µg/mL (≈ 0.242 µM)
[17]
  MIC: 0.063 µg/mL (≈ 0.117 µM)
[18]
  MIC: 0.25 µg/mL (≈ 0.466 µM)
[19]
  MIC: 64 µg/mL (≈ 119 µM)
[20]
  MIC: 0.25 µg/mL (≈ 0.466 µM)
[21]
  MIC: 8 µg/mL (≈ 14.9 µM)
[22]
  MIC: 64 µg/mL (≈ 119 µM)
[23]
  MIC: 0.13 µg/mL (≈ 0.242 µM)
[24]
  MIC: 0.5 µg/mL (≈ 0.932 µM)
[25]
  MIC: 0.13 µg/mL (≈ 0.242 µM)

## C[n+]1c(SCC2=C(C(=O)[O-])N3C(=O)[C@@H](NC(=O)/C(=N\O)c4csc(N)n4)[C@H]3SC2)nc(N)c(N)c1N [Example 9, 7-[(Z)-2-(2-aminothiazol-4-yl)-2-oxyiminoacetamido]-3-(4,5,6-triamino-1-methylpyrimidinium-2-yl)thiomethyl-3-cephem-4-carboxylate]
[1]
  MIC: 0.25 µg/mL (≈ 0.452 µM)
[2]
  MIC: 16 µg/mL (≈ 29 µM)
[3]
  MIC: 0.031 µg/mL (≈ 0.0561 µM)
[4]
  MIC: 0.031 µg/mL (≈ 0.0561 µM)
[5]
  MIC: ≤ 0.008 µg/mL
[6]
  MIC: 0.031 µg/mL (≈ 0.0561 µM)
[7]
  MIC: ≤ 0.008 µg/mL
[8]
  MIC: ≤ 0.008 µg/mL
[9]
  MIC: 0.031 µg/mL (≈ 0.0561 µM)
[10]
  MIC: 0.063 µg/mL (≈ 0.114 µM)
[11]
  MIC: 0.13 µg/mL (≈ 0.235 µM)
[12]
  MIC: 64 µg/mL (≈ 116 µM)
[13]
  MIC: 0.25 µg/mL (≈ 0.452 µM)
[14]
  MIC: 0.016 µg/mL (≈ 0.029 µM)
[15]
  MIC: 2 µg/mL (≈ 3.62 µM)
[16]
  MIC: 0.063 µg/mL (≈ 0.114 µM)
[17]
  MIC: 0.016 µg/mL (≈ 0.029 µM)
[18]
  MIC: 0.063 µg/mL (≈ 0.114 µM)
[19]
  MIC: 128 µg/mL (≈ 232 µM)
[20]
  MIC: 0.031 µg/mL (≈ 0.0561 µM)
[21]
  MIC: 0.13 µg/mL (≈ 0.235 µM)
[22]
  MIC: 128 µg/mL (≈ 232 µM)
[23]
  MIC: 0.063 µg/mL (≈ 0.114 µM)
[24]
  MIC: 0.25 µg/mL (≈ 0.452 µM)
[25]
  MIC: 0.25 µg/mL (≈ 0.452 µM)
